The record followed here is ChEMBL document CHEMBL1139473, “Design, synthesis, and biological evaluation of dual binding site acetylcholinesterase inhibitors: new disease-modifying agents for Alzheimer's disease” (J Med Chem, 2005).

The target in one series is Cholinesterase (Homo sapiens, UniProt P06276).
The target of series [1] is T1, Acetylcholinesterase (Bos taurus, UniProt P23795).
T1 sequence (P23795 whole entry): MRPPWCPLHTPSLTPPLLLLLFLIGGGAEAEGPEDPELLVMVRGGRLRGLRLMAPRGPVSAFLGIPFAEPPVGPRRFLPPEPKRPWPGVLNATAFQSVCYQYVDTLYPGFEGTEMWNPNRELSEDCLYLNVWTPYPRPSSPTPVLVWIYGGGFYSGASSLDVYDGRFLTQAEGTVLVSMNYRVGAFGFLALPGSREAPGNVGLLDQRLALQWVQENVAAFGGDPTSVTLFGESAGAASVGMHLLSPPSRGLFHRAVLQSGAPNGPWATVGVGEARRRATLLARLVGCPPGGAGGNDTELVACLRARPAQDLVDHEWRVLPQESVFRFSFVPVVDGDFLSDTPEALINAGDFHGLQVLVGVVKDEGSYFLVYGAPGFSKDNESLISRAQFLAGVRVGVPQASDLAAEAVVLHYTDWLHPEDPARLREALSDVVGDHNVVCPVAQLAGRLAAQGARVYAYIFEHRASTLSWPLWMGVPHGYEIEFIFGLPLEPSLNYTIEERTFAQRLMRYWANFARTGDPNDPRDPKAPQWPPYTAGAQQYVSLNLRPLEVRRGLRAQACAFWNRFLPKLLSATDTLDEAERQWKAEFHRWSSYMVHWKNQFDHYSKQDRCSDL
The experiment in a line: biochemical.
Description: Inhibition of AchE in bovine erythrocytes

Series [2] deals with T2, Acetylcholinesterase (Homo sapiens, UniProt P22303).
Description: Inhibition of human brain AchE
Series [3] addresses T2, Acetylcholinesterase. This is another data set of the same source.
The target in series [4] is Cholinesterases; ACHE & BCHE (Homo sapiens) (UniProt P06276+P22303). Kind of series: Selectivity for human BChE over human AChE. It counts as protein assay.
Series [5] concerns the target T2, Acetylcholinesterase. The experiment in a line: Inhibition of human AChE-induced beta amyloid peptide(1-40) aggregation at 100 uM by thioflavin T-based fluorometric assay. It counts as functional.
The test system of the next series is SH-SY5Y. The experiment in a line: Cytotoxicity against human SHSY5Y cells at 10 uM after 48 hrs. Type of series: cell-based.

Cholinesterase, sequence (P06276 whole entry): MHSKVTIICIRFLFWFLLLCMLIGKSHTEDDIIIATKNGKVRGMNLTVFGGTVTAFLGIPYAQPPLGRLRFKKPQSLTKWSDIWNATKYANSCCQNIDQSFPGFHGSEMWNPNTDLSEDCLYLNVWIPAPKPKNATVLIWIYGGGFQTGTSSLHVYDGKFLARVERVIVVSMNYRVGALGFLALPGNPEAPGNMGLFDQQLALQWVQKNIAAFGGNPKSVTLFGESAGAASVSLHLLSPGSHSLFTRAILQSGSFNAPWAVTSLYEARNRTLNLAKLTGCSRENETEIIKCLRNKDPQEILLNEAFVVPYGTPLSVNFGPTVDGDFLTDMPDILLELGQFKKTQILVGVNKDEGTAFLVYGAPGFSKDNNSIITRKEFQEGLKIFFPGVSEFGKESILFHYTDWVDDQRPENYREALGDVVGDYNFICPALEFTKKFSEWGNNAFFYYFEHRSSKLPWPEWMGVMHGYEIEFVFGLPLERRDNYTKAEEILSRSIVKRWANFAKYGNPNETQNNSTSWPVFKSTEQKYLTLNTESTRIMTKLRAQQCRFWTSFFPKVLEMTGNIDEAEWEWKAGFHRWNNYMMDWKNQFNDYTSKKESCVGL
Cholinesterases; ACHE & BCHE (Homo sapiens), sequence (P06276 whole entry, looked up): as the sequence (P06276 whole entry) above
Cholinesterases; ACHE & BCHE (Homo sapiens), sequence (P22303 whole entry, looked up): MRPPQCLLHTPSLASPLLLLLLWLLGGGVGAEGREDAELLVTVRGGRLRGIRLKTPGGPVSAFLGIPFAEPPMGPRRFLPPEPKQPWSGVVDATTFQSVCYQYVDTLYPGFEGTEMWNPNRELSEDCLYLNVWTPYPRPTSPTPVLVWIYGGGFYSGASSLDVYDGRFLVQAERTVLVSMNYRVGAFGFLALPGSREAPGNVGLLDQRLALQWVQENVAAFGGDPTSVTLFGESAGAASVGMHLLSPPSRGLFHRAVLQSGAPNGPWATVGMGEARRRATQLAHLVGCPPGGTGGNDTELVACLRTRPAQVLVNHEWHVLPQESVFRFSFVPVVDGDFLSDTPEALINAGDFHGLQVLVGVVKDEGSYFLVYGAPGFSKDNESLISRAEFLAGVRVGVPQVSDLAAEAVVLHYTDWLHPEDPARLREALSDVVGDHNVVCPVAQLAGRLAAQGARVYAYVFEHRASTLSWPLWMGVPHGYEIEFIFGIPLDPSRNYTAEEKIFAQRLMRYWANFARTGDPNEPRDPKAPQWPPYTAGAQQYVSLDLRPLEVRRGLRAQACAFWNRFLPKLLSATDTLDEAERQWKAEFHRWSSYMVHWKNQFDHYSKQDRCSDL
T2 sequence (P22303 whole entry): as the sequence (P22303 whole entry, looked up) above

As to `N#Cc1ccc2[nH]cc(CCC(=O)NCCCCCCNc3c4c(nc5cc(Cl)ccc35)CCCC4)c2c1`, the IC50 was determined as 11.7 nM against Cholinesterase and 0.7 nM on Acetylcholinesterase [1].

For `O=C(Cc1c[nH]c2ccccc12)NCCCCCCCNc1c2c(nc3cc(Cl)ccc13)CCCC2`, the IC50 on Acetylcholinesterase [2] turned out to be 0.12 nM; on Acetylcholinesterase [3] it was 7000 nM; on Cholinesterase it was 11.7 nM; at Acetylcholinesterase [1] it was 0.2 nM. The compound also came in with a Ki at Acetylcholinesterase [2] of 0.015 nM. In addition, the Ratio IC50 in series [4] stood at 0.01. Also, on Acetylcholinesterase [5], the inhibition was 84%.

For `Cn1cc(C(=O)NCCCCCCCNc2c3c(nc4cc(Cl)ccc24)CCCC3)c2ccccc21`, the results for the half-inhibitory concentration (IC50) on Cholinesterase and against Acetylcholinesterase [1] were 206 nM and 10.9 nM, respectively.

Consider `O=C(CCOc1c[nH]c2ccccc12)NCCCCCNc1c2c(nc3cc(Cl)ccc13)CCCC2`, for which the results for the IC50 on Cholinesterase and against Acetylcholinesterase [1] were 136 nM and 1.5 nM, respectively.

For `O=C(CCOc1c[nH]c2ccccc12)NCCCCCCNc1c2c(nc3cc(Cl)ccc13)CCCC2`, the IC50 against Cholinesterase was 60 nM; against Acetylcholinesterase [1] it was 0.7 nM.

Consider `O=C(CCCc1c[nH]c2ccccc12)NCCCCCCNc1c2c(nc3cc(Cl)ccc13)CCCC2`, for which, at Acetylcholinesterase [1], half-maximal inhibition (IC50) was put at 0.5 nM.

As for `O=C(Cc1c[nH]c2ccc(Br)cc12)NCCCCCCCNc1c2c(nc3cc(Cl)ccc13)CCCC2`, the IC50 at Acetylcholinesterase [2] stood at 0.23 nM; against Acetylcholinesterase [3], 15000 nM; at Acetylcholinesterase [1], 0.6 nM. On Acetylcholinesterase [2], this compound had a Ki of 0.02 nM. Besides, the Ratio IC50 in series [4] came out at 0.14. The compound also came in with an inhibition against Acetylcholinesterase [5] of 82%.

As to `O=C(CCc1c[nH]c2ccccc12)NCCCCCCCCNc1c2c(nc3cc(Cl)ccc13)CCCC2`, the result with SH-SY5Y was Active.

Consider `O=C(CCc1c[nH]c2ccccc12)NCCCCCCCCCc1c2c(nc3cc(Cl)ccc13)CCCC2`, for which inhibition against Cholinesterase was half-maximal at 9.6 nM (IC50).

For the compound `O=C(CCc1c[nH]c2ccccc12)NCCCCCCNc1c2c(nc3cc(Cl)ccc13)CCCC2`, on Acetylcholinesterase [2], the IC50 was found to be 0.07 nM and the inhibition constant Ki is 0.014 nM. The compound further gave an IC50 at Acetylcholinesterase [3] of 2000 nM. The Ratio IC50 in series [4] was 0.02. In addition, the inhibition against Acetylcholinesterase [5] came to 98%.

`O=C(CCc1c[nH]c2ccccc12)NCCCCCNc1c2c(nc3cc(Cl)ccc13)CCCC2` showed a half-maximal inhibitory concentration (IC50) at Cholinesterase of 16 nM.

On to `O=C(/C=C/c1c[nH]c2ccccc12)NCCCCCCNc1c2c(nc3cc(Cl)ccc13)CCCC2`, for which the values for the IC50 against Cholinesterase and against Acetylcholinesterase [1] were 77 nM and 18 nM, respectively.

For `O=C(CCc1c[nH]c2ccccc12)NCCCCCCCNc1c2c(nc3cc(Cl)ccc13)CCCC2`, at Acetylcholinesterase [2], the half-maximal inhibitory concentration (IC50) amounted to 0.02 nM and the Ki came to 0.009 nM. On Acetylcholinesterase [3], this compound had an IC50 of 6000 nM. Further, the Ratio IC50 in series [4] came to 0.22. Also, the inhibition at Acetylcholinesterase [5] was 96%. Moreover, the outcome in the series with SH-SY5Y was Active.

As to `O=C(CCCc1c[nH]c2ccccc12)NCCCCCNc1c2c(nc3cc(Cl)ccc13)CCCC2`, the IC50 was 0.13 nM at Acetylcholinesterase [2], 2000 nM against Acetylcholinesterase [3], 3.2 nM against Cholinesterase and 0.3 nM at Acetylcholinesterase [1]. The same compound showed a Ki on Acetylcholinesterase [2] of 0.0017 nM. In series [4], the Ratio IC50 worked out at 0.04. Besides, the inhibition against Acetylcholinesterase [5] was 99%.

With `O=C(CCOc1c[nH]c2ccccc12)NCCCCCCCNc1c2c(nc3cc(Cl)ccc13)CCCC2`, the figures for the IC50 against Cholinesterase and against Acetylcholinesterase [1] were 59 nM and 3 nM, respectively.

For the compound `CN(CCCNC(=O)CCc1c[nH]c2ccccc12)CCCNc1c2c(nc3cc(Cl)ccc13)CCCC2`, the midpoint of inhibition against Cholinesterase, the IC50, lay at 21.4 nM. In the series with SH-SY5Y, the result was Active.

In the case of `O=C(CCc1c[nH]c2ccccc12)NCCCCCCCCCCNc1c2c(nc3ccccc13)CCCC2`, the concentration for half-maximal inhibition (IC50) at Cholinesterase was 54 nM; against Acetylcholinesterase [1], 21.9 nM.
